From ChEMBL document CHEMBL4340576, “Synthesis of oxadiazole-coupled-thiadiazole derivatives as a potent β-glucuronidase inhibitors and their molecular docking study” (Bioorg Med Chem, 2019)

Target: T1, Beta-glucuronidase (Homo sapiens, UniProt P08236)
T1 sequence (P08236 whole entry): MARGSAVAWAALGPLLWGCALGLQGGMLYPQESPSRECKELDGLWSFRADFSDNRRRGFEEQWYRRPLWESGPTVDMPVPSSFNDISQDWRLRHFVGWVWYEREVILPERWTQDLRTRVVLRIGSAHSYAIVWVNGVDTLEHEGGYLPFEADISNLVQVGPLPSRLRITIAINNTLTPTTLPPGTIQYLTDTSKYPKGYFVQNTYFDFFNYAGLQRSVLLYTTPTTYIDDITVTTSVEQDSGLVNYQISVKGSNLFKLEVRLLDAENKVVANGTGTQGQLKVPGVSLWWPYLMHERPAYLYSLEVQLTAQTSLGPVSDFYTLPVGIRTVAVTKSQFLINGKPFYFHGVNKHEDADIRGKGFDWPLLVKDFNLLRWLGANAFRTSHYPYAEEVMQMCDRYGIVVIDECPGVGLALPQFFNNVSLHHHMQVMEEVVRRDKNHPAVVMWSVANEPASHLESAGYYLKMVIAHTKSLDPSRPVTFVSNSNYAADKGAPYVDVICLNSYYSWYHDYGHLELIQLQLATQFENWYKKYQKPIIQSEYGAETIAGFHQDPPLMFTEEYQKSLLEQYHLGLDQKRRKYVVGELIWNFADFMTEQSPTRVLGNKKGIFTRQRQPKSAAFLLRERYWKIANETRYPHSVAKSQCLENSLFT
Description: Inhibition of human beta-glucuronidase pre-incubated for 30 mins before p-nitrophenyl-beta-D-glucuronide substrate addition by spectrophotometry

IC50, Not Active:
COc1cc(O)ccc1-c1nnc(-c2ccc(-c3nnc(-c4cccc(C)c4)s3)cc2)o1
COc1cc(O)ccc1-c1nnc(-c2ccc(-c3nnc(-c4cccc([N+](=O)[O-])c4)s3)cc2)o1
COc1cc(O)ccc1-c1nnc(-c2ccc(-c3nnc(-c4cccnc4)s3)cc2)o1
COc1cc(O)ccc1-c1nnc(-c2ccc(-c3nnc(-c4ccncc4)s3)cc2)o1
